In this assay the test system is Spodoptera frugiperda. Nature of the assay: Antifeedant activity against final instar larvae of Spodoptera frugiperda assessed as antifeedant index at 1000 ppm. It is filed as functional.

Turning to `C/C=C(\C)C(=O)O[C@@H]1[C@H]2C(=O)[C@](C)([C@H]3CC[C@]4(C)[C@@H](CC(=O)O[C@H]4c4ccco4)[C@]34O[C@H]24)[C@@H]([C@@H](OC(C)=O)C(=O)OC)C1(C)C` [swietemahonin F], the Activity amounted to 70.2%.
